Results from patent publication US7816489B2, “Methods for making intermediates and oxytocin analogues” (Ferring B.V., priority 2002, dated 2010).

Target: T1, Recombinant human oxytocin receptors (Homo sapiens, UniProt P30559)
T1 construct: expressed in transfected cells; host or cells: CHO cells
T1 sequence (P30559 1-389): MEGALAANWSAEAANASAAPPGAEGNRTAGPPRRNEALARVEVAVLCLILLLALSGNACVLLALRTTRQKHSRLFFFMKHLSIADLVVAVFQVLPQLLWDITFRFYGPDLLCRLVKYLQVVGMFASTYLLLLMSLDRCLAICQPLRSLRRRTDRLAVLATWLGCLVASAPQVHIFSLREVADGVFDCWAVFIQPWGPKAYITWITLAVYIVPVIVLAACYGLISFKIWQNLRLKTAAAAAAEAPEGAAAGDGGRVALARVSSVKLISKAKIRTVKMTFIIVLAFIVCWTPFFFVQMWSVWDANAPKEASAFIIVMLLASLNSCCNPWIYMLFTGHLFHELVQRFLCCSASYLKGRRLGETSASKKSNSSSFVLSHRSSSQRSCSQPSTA
Assay: Oxytocin receptor binding assay, [125I]-oxytocin, membrane fraction of CHO cells
Conditions: receptors expressed in CHO cells; [125I]-oxytocin displacement; read-out: inhibition constant Ki
Experimental: Recombinant human oxytocin receptors were expressed in CHO cells using standard molecular biological techniques. A membrane fraction was prepared and incubated in the presence of [^125I]-oxytocin and varying concentrations of equivalent heptapeptide analogue. Membranes were then isolated by filtration and counted for radioactivity to determine oxytocin binding. An inhibition constant Ki was determined for the analogue.

CC[C@@H](C)[C@@H]1NC(=O)[C@H]([C@@H](C)CC)NC(=O)[C@@H](Cc2c[nH]c3ccccc23)NC(=O)CCSCC[C@@H](C(=O)N(C)[C@H](CO)CCCN)NC(=O)[C@H](CC(N)=O)NC1=O [IV]
Ki: 0.1 nM
